Patent US20240336627A1, “NOVEL COMPOUNDS FOR THE DIAGNOSIS OF TDP-43 PROTEINOPATHIES” (AC IMMUNE SA, priority 2021, published 2024)
pKi: −log10 of the molar value. Marks after values point to notes of the source that are not given here.

Molecular target: T1, Human brain derived TDP-43 aggregates (Homo sapiens, UniProt Q13148)
T1 construct: A sample of brain tissue (frontal or temporal cortex) was homogenized; from tissue; host or cells: sarkosyl-insoluble fraction of human FTD brain (frontal or temporal cortex)
Assay: Micro-radiobinding competition assay on human FTD sarkosyl-insoluble brain extracts
Type: binding
Conditions: for Human brain derived TDP-43 aggregates Mean % competition at 250 nM: 250 nM test compound; for Human brain derived TDP-43 aggregates Mean % competition at 2 μM: 2 μM test compound; for pKi: 0.24 nM to 2 μM test compound
Procedure: Human brain extracts were prepared as described in Laferriere et al., 2019, Nature Neurosc. A sample of brain tissue (frontal or temporal cortex) was homogenized at 1:4 (w/v) ratio in the homogenization-solubilization (HS) buffer at 4° C. using tissue homogenizer (Precellys) with CKmix homogenization tubes. The following sequence was used for homogenization: 3 cycles of 30 seconds at 5000 rpm (with 15 seconds pause between each cycle). Homogenized samples were aliquoted and stored at −80° C. in 1.5 mL low protein binding tubes.
Brain homogenates were thawed on ice and resuspended in HS buffer to obtain a final concentration of 2% sarkosyl, 1 unit/μL Benzonase and 1 mM MgCl2. The samples were then incubated at 37° C. under constant shaking at 600 rpm on a thermomixer for 45 minutes (min). The supernatants were collected in a new tube (sarkosyl-soluble fraction, S1). The pellet was resuspended in 1000 μL of myelin floatation buffer and centrifuged at 20,000 g for 60 min at 4° C. The supernatant was carefully removed to remove all the floating lipids. This step was repeated if all the lipids could not be removed in a single step. The pellet was subsequently washed with Phosphate-Buffered Saline (PBS) and centrifuged for 30 min at 20,000 g at 4° C. The final pellet was resuspended in 200 μL PBS and stored at −80° C. (sarkosyl-insoluble fraction). The samples were analyzed by immunoblotting in denaturing conditions.
Human FTD sarkosyl-insoluble brain extracts were spotted onto microarray slides. The slides were incubated with [^3H]-Compound 52 or [^3H]-Compound 16 ligands at 75 nM or 40 nM, respectively, and the example compounds (non-radiolabelled) at 2 μM and 250 nM. In some cases, the non-radiolabelled example compounds were further assessed for a range of different concentrations, varying from 0.24 nM to 2 μM for determination of the inhibition constant (Ki). After incubation, slides were washed and scanned by a real-time autoradiography system (BeaQuant, ai4R). Quantification of the signal was performed by using the Beamage image analysis software (ai4R). Non-specific signal was determined with an excess of non-radiolabelled compound 52 or compound 16 (2 μM) and specific binding was calculated by subtracting the non-specific signal from the total signal. Competition was calculated as percent, where 0% was defined as the specific binding in the presence of vehicle and 100% as the values obtained in the presence of excess of the non-radiolabelled compound 52 or compound 16. Ki values were calculated in GraphPad Prism7 by applying a nonlinear regression curve fit using a one site, specific binding model. Measurements were performed with at least two technical replicates in the two-concentration competition experiment and with one technical replicate in the experiments including a range of concentrations. For compounds tested in more than one experiment, the mean of the replicates or Ki values in independent experiments is reported.

[1] = radioligand [3H]-Compound 52 (75 nM)
[2] = radioligand [3H]-Compound 16 (40 nM)

T1 sequence (Q13148 whole entry): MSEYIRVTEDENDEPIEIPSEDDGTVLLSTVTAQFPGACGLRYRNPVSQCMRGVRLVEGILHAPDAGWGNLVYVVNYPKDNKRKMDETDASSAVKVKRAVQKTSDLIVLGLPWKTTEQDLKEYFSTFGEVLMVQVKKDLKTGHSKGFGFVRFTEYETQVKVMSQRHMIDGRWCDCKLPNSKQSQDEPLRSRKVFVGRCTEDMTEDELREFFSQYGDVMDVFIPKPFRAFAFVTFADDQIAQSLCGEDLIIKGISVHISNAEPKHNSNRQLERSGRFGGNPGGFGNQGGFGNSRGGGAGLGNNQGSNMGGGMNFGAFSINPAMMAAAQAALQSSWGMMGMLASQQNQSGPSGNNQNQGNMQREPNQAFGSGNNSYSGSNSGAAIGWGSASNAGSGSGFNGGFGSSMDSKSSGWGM

Human brain derived TDP-43 aggregates Mean % competition at 250 nM [1]	Human brain derived TDP-43 aggregates Mean % competition at 2 μM [1]	pKi [1]	Human brain derived TDP-43 aggregates Mean % competition at 250 nM [2]	Human brain derived TDP-43 aggregates Mean % competition at 2 μM [2]	pKi [2]	SMILES
35.5ª %	76.1ª %	7.00				N#Cc1cc(N2CCc3nc(-c4ccc(N5CC[C@H](F)C5)nc4)sc3C2=O)ccc1N [Example 23]
56.9ª %	84.1ª %	6.96				Nc1cccc(N2CCc3nc(-c4ccc(N5CC[C@@H](F)C5)nc4)sc3C2=O)c1F [Example 24]
66.6ª %	83.0ª %					Nc1cc(N2CCc3nc(-c4ccc(N5CC[C@@H](F)C5)nc4)sc3C2=O)ccc1F [Example 25]
40.8ª %	70.8ª %	8.00				Nc1cc(N2CCc3nc(-c4ccc(N5CC[C@H](F)C5)nc4)sc3C2=O)ccc1F [Example 26, (S)-5-(3-amino-4-fluorophenyl)-2-(6-(3-fluoropyrrolidin-1-yl)pyridin-3-yl)-6,7-dihydrothiazolo[5,4-c]pyridin-4(5H)-one]
54.3ª %	80.2ª %	6.89				Cn1cc(N2CCc3nc(-c4ccc(N5CC[C@@H](F)C5)cc4)sc3C2=O)cn1 [Example 27]
56.5ª %	79.7ª %	6.95				Cn1cc(N2CCc3nc(-c4ccc(N5CC[C@H](F)C5)cc4)sc3C2=O)cn1 [Example 28]
42.6ª %	73.9ª %	7.56				N#Cc1cc(N2CCc3nc(-c4ccc(N5CCC[C@@H](F)C5)nc4)sc3C2=O)ccc1N [Example 29]
55.9ª %	75.7ª %	7.06				N#Cc1ccc(N2CCc3nc(-c4ccc(N5CCC[C@@H](F)C5)nc4)sc3C2=O)cc1N [Example 30]
67.6ª %	79.7ª %	7.00				N#Cc1ccc(N2CCc3nc(-c4ccc(N5CCC[C@H](F)C5)nc4)sc3C2=O)cc1N [Example 31]
44.0ª %	80.9ª %					N#Cc1cc(N2CCc3nc(-c4ccc(N5CCC[C@H](F)C5)nc4)sc3C2=O)ccc1N [Example 32]
52.1ª %	81.0ª %	6.84				Nc1cc(N2CCc3nc(-c4ccc(N5CCC[C@H](F)C5)nc4)sc3C2=O)ccc1F [Example 33]
72.8ª %	67.9ª %					Nc1cc(N2CCc3nc(-c4ccc(N5CCCC5)cn4)sc3C2=O)ccc1F [Example 34]
53.0ª %	74.6ª %					Nc1cc(N2CCc3nc(-c4cnc(N5CC[C@@H](F)C5)cn4)sc3C2=O)ccc1F [Example 35]
51.0ª %						Nc1cc(N2CCc3nc(-c4cnc(N5CCC[C@H](F)C5)cn4)sc3C2=O)ccc1F [Example 36]
54.3ª %	74.9ª %	7.10				Nc1cc(N2CCc3nc(-c4cnc(N5CC[C@H](F)C5)cn4)sc3C2=O)ccc1F [Example 37]
46.3ª %	74.0ª %	6.94				Nc1cccc(N2CCc3nc(-c4cnc(N5CC[C@@H](F)C5)cn4)sc3C2=O)c1F [Example 38]
			64.5^c %	77.4^c %	6.83	N#Cc1c(N)cccc1N1CCc2nc(-c3cnc(N4CCC(F)CC4)cn3)sc2C1=O [Example 39]
			54.6^c %	77.9^c %	6.98	N#Cc1c(N)cccc1N1CCc2nc(-c3cnc(N4CC[C@@H](F)C4)cn3)sc2C1=O [Example 40]
			47.2^c %	67.7^c %		N#Cc1c(N)cccc1N1CCc2nc(-c3cnc(N4CC[C@H](F)C4)cn3)sc2C1=O [Example 41]
43.8ª %	79.6ª %					Nc1cc(N2CCc3nc(-c4cnc(N5CCCC5)nc4)sc3C2=O)ccc1F [Example 42]
45.0ª %	69.4ª %					Nc1ccc(N2CCc3nc(-c4cnc(N5CCCC5)nc4)sc3C2=O)cc1F [Example 43]
47.0ª %	64.3ª %					Cn1cc(N2CCc3nc(-c4cnc(N5CCC[C@H](F)C5)nc4)sc3C2=O)cn1 [Example 45]
62.5ª %	85.9ª %	7.03				Nc1cc(N2CCc3nc(-c4cnc(N5CC[C@@H](F)C5)nc4)sc3C2=O)ccc1F [Example 46]
50.2ª %	81.7ª %	6.82				Nc1cccc(N2CCc3nc(-c4cnc(N5CC[C@H](F)C5)nc4)sc3C2=O)c1F [Example 47]
46.9ª %	77.9ª %	7.13				Nc1cccc(N2CCc3nc(-c4cnc(N5CCC[C@H](F)C5)nc4)sc3C2=O)c1F [Example 48]
			63.1^c %	65.5^c %	6.93	Nc1cc(N2CCc3nc(-c4cnc(N5CCC(F)CC5)nc4)sc3C2=O)ccc1F [Example 49]
			52.8^c %	63.4^c %		Nc1cccc(N2CCc3nc(-c4cnc(N5CCC[C@@H](F)C5)nc4)sc3C2=O)c1F [Example 50]
